The values that follow come from PubChem BioAssay (NCI).

Some test systems named below: 786-0 renal; HL-60(TB) leukemia; HOP-62 NSCLC; HOP-92 NSCLC; LOX IMVI melanoma; RXF 393 renal; SF-539 CNS; SK-MEL-28 melanoma; SK-MEL-5 melanoma.
What all share (experiment): NCI tumour cell line growth inhibition, 48 h

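Tested at 5 concentrations; 48 h exposure; 96-well plates; endpoints linearly interpolated, else capped at highest concentration. GI50 is the concentration that inhibits growth by half. TGI: concentration producing complete growth inhibition.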

Take `[O-]c1c2c(nn1-c1ccccc1)c1ccccc1c[n+]2Cc1ccccc1`: the TGI in the assay on 786-0 renal is more than 100 µM; in the assay with HL-60(TB) leukemia, more than 100 µM; with HOP-62 NSCLC, more than 100 µM; with HOP-92 NSCLC it was more than 100 µM; in the assay on LOX IMVI melanoma, more than 100 µM; in the assay on RXF 393 renal, 7.33 µM. For the same compound, the TGI in the assay on SF-539 CNS, in the assay on SK-MEL-28 melanoma and in the assay with SK-MEL-5 melanoma was more than 100 µM in each case.
Turning to `Cc1ccc(NC(=O)CCC(CC(=O)C(C)(C)C)=NNC(=O)C(=O)NN)cc1C`, the TGI in the assay on 786-0 renal, in the assay with HL-60(TB) leukemia, with HOP-62 NSCLC, in the assay on LOX IMVI melanoma, in the assay with RXF 393 renal and in the assay on SF-539 CNS was more than 100 µM each time. For the same compound, the TGI with SK-MEL-28 melanoma and with SK-MEL-5 melanoma was more than 100 µM throughout.
For `O=S(=O)(O)O.[NH-]C1CCCCC1[NH-].[Pt+2]` (stereo unspecified), the GI50 was 40.7 µM in the assay on 786-0 renal; 19.3 µM with HL-60(TB) leukemia; more than 100 µM in the assay with HOP-62 NSCLC; 56.7 µM in the assay on HOP-92 NSCLC; more than 100 µM with LOX IMVI melanoma; more than 100 µM in the assay on RXF 393 renal. Moreover, the figures for the GI50 in the assay with SF-539 CNS, in the assay with SK-MEL-28 melanoma and in the assay with SK-MEL-5 melanoma were more than 100 µM, more than 100 µM and 42.3 µM, respectively. Moreover, the TGI with 786-0 renal, in the assay on HL-60(TB) leukemia, with HOP-62 NSCLC, in the assay on HOP-92 NSCLC, with LOX IMVI melanoma and in the assay on RXF 393 renal was more than 100 µM throughout. Moreover, the TGI in the assay with SF-539 CNS, in the assay with SK-MEL-28 melanoma and in the assay with SK-MEL-5 melanoma was more than 100 µM throughout.
For the compound `O=c1/c(=C/c2cccc([N+](=O)[O-])c2)sc2nc3ccccc3n12`, the TGI in the assay with 786-0 renal, in the assay on HL-60(TB) leukemia, in the assay with HOP-62 NSCLC, in the assay with LOX IMVI melanoma, in the assay with RXF 393 renal and with SK-MEL-28 melanoma was more than 100 µM throughout.
Take `CCOC(=O)C12CCCC1(O)N(NC(=O)c1ccccc1)C(C)=C2C(=O)OC` (stereo unspecified): the TGI with 786-0 renal, in the assay with HL-60(TB) leukemia, in the assay on HOP-62 NSCLC, in the assay on HOP-92 NSCLC, in the assay on LOX IMVI melanoma and with SF-539 CNS was more than 100 µM each time.
For the compound `COC(=O)C1=C2CCC(=O)[C@@]2(C)C(OC(C)=O)C=CC1` (stereo partly specified), the TGI in the assay on 786-0 renal, with HL-60(TB) leukemia, in the assay on HOP-62 NSCLC, with RXF 393 renal, in the assay with SF-539 CNS and in the assay on SK-MEL-28 melanoma was more than 100 µM throughout. In the assay with SK-MEL-5 melanoma, this compound showed a TGI of more than 100 µM.
`CCOC12OC3=C(CC1CC1=C(CCC1=O)O2)C(=O)CC3` (stereo unspecified): the TGI with 786-0 renal, in the assay with HL-60(TB) leukemia, with HOP-62 NSCLC, with HOP-92 NSCLC, with LOX IMVI melanoma and in the assay on RXF 393 renal was more than 100 µM throughout. Also, the TGI with SF-539 CNS and in the assay with SK-MEL-5 melanoma was more than 100 µM each time.
`CS(=O)(=O)NNS(=O)(=O)c1cccc([N+](=O)[O-])c1`: the TGI in the assay with 786-0 renal, with HL-60(TB) leukemia, in the assay with HOP-62 NSCLC, in the assay with LOX IMVI melanoma, with RXF 393 renal and in the assay on SF-539 CNS was more than 100 µM in each case. This compound had a TGI with SK-MEL-5 melanoma of more than 100 µM.
Consider `O=c1cccccc1NCCOCCNc1cccccc1=O`, for which the TGI in the assay on 786-0 renal, in the assay on HL-60(TB) leukemia, in the assay on HOP-62 NSCLC, in the assay with LOX IMVI melanoma, in the assay with SK-MEL-28 melanoma and with SK-MEL-5 melanoma was more than 100 µM throughout.
Turning to `C=CCCC(OCOCCOC)c1cc(C)c(O[Si](C)(C)C(C)(C)C)c(C)c1` (stereo unspecified), the TGI in the assay on 786-0 renal worked out at 28.1 µM; in the assay with HL-60(TB) leukemia, 19.5 µM; in the assay with HOP-62 NSCLC it was 35.2 µM; in the assay with LOX IMVI melanoma, 27.6 µM; in the assay on RXF 393 renal, 27.4 µM; in the assay on SF-539 CNS, 38.6 µM. Further, the figures for the TGI in the assay on SK-MEL-28 melanoma and with SK-MEL-5 melanoma were 64.7 µM and 24.3 µM, respectively.
As for `CC1(C)COC(C23C4C5C2C2C3C4C52I)=N1` (stereo unspecified), the TGI with 786-0 renal, in the assay on HOP-62 NSCLC, with HOP-92 NSCLC, in the assay with RXF 393 renal, in the assay with SF-539 CNS and in the assay on SK-MEL-28 melanoma was more than 100 µM throughout. The TGI with SK-MEL-5 melanoma was more than 100 µM.
In the case of `C/C(=C\C(C)COCc1ccccc1)[C@H](COCc1ccccc1)OCc1ccccc1` (stereo partly specified), the TGI with 786-0 renal, in the assay with HOP-62 NSCLC, in the assay on HOP-92 NSCLC, in the assay with LOX IMVI melanoma, in the assay on RXF 393 renal and in the assay on SF-539 CNS was more than 100 µM each time. Moreover, the TGI with SK-MEL-28 melanoma and in the assay on SK-MEL-5 melanoma was more than 100 µM each time.
Regarding `CC1CC2(C)ON=C(c3ccccc3)N2c2ccccc2S1` (stereo unspecified), the GI50 in the assay on 786-0 renal was 34.4 µM; in the assay on HL-60(TB) leukemia, 23.5 µM; with HOP-62 NSCLC, 56.7 µM; in the assay with LOX IMVI melanoma, 22 µM; in the assay with SF-539 CNS it was 22.4 µM; in the assay on SK-MEL-28 melanoma it was 76.7 µM. In the assay with SK-MEL-5 melanoma, the GI50 is 16.9 µM. Besides, the TGI in the assay with LOX IMVI melanoma worked out at 50.1 µM; in the assay on SF-539 CNS it was 51.6 µM; in the assay on SK-MEL-5 melanoma, 32.1 µM.
Regarding `CC(=O)[CH-]C(=O)c1ccccc1.CC(=O)[CH-]C(=O)c1ccccc1.CC[O-].CC[O-].[Zr+4]`, the GI50 in the assay with 786-0 renal, with HL-60(TB) leukemia, in the assay with HOP-62 NSCLC, in the assay on LOX IMVI melanoma, in the assay on RXF 393 renal and in the assay with SF-539 CNS was more than 100 µM each time. For the same compound, the GI50 in the assay with SK-MEL-28 melanoma and in the assay on SK-MEL-5 melanoma was more than 100 µM in each case. The TGI in the assay on 786-0 renal, with HL-60(TB) leukemia, in the assay with HOP-62 NSCLC, in the assay with LOX IMVI melanoma, in the assay on RXF 393 renal and with SF-539 CNS was more than 100 µM throughout. The TGI in the assay with SK-MEL-28 melanoma and with SK-MEL-5 melanoma was more than 100 µM in each case.
On to `COc1ccc(C(=O)OCC2OC(n3cnc4c(=S)nc[nH]c43)C(OC(=O)c3ccc(OC)cc3)C2OC(=O)c2ccc(OC)cc2)cc1` (stereo unspecified), for which the TGI with 786-0 renal, with HL-60(TB) leukemia, with HOP-62 NSCLC, with HOP-92 NSCLC, with SF-539 CNS and in the assay with SK-MEL-28 melanoma was more than 100 µM each time. In the assay on SK-MEL-5 melanoma, the TGI was more than 100 µM.
